Test results published in patent US9695155B2, “Herbicidal substituted pyrimidinyloxy benzene compounds” (E. I. DU PONT DE NEMOURS AND COMPANY, priority 2013, dated 2017).
Read-outs that look alike come from different tables or passages of the source.

Key:
[1] = test system: giant foxtail; test: Test A preemergence; assay type: in vivo, Setaria faberii; conditions: for pest or weed control at 125 g/ha / pest or weed control at 500 g/ha: Setaria faberi, pre-emergence, 240 h
Summary of the method: (§1)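 Compounds in non-phytotoxic solvent with surfactant applied as soil spray preemergence, or postemergence to plants 2-10 cm at one- to two-leaf stage, in loam/sand. After approximately 10 days in greenhouse, injury rated visually versus untreated controls, 0 (no effect) to 100 (complete control).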

[2] = test system: barnyardgrass; test: Test A postemergence; assay type: in vivo, Echinochloa crus-galli; conditions: for pest or weed control at 125 g/ha / pest or weed control at 500 g/ha: Echinochloa crus-galli, post-emergence, 240 h; for pest or weed control at 125 g/ha: read-out: Plant response rating, Barnyardgrass; for pest or weed control at 500 g/ha: read-out: Plant response rating Barnyardgrass
Summary of the method: as §1

[3] = test system: pigweed; test: Test A postemergence; assay type: in vivo, Amaranthus retroflexus; conditions: for pest or weed control at 125 g/ha / pest or weed control at 500 g/ha: Amaranthus retroflexus, post-emergence; for pest or weed control at 125 g/ha: read-out: Plant response rating, Pigweed; for pest or weed control at 500 g/ha: 240 h, read-out: Plant response rating Pigweed
Summary of the method: as §1

[4] = test system: barnyardgrass; test: Test B flooded paddy test; assay type: in vivo, Echinochloa crus-galli; conditions: Flood, 250 g ai/ha, 0 to 100 scale where 0 is no effect and 100 is complete control; for pest or weed control at 250 g/ha: Echinochloa crus-galli, read-out: Plant response rating, Barnyardgrass
Summary of the method: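 Plants at 2-leaf stage; pots flooded to 3 cm above soil and compound applied directly into paddy water, depth held throughout. After 13 to 15 days in greenhouse, visual rating versus controls on 0 (no effect) to 100 (complete control) scale.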

[5] = test system: galium; test: Test C postemergence; assay type: in vivo, Galium aparine; conditions: Galium, post-emergence
Excerpt: (§2) Seeds of plant species selected from blackgrass (Alopecurus myosuroides), Italian ryegrass (Lolium multiflorum), wheat, winter (winter wheat, Triticum aestivum), galium (catchweed bedstraw, Galium aparine), corn (Zea mays), large (Lg) crabgrass (Digitaria sanguinalis), giant foxtail (Setaria faberii), johnsongrass (Sorghum halepense), lambsquarters (Chenopodium album), morningglory (Ipomoea coccinea), yellow nutsedge (Cyperus esculentus), pigweed (Amaranthus retroflexus), ragweed (common ragweed, Ambrosia elatior), soybean (Glycine max), barnyardgrass (Echinochloa crus-galli), oilseed rape (Brassica napus), waterhemp (common waterhemp, Amaranthus rudis), kochia (Kochia scoparia), wild oat (Avena fatua), surinam grass (Brachiaria decumbens), foxtail, green (green foxtail, Setaria viridis), goosegrass (Eleusine indica), bromegrass, downy (downy bromegrass, Bromus tectorum), nightshade (eastern black nightshade, Solanum ptycanthum), cocklebur (common cocklebur, Xanthium strumarium), cupgrass, woolly (woolly cupgrass, Eriochloa villosa), bermudagrass (Cynodon dactylon), sunflower, (common oilseed sunflower, Helianthus annuus), Russian thistle (Salsola kali), and velvetleaf (Abutilon theophrasti) were planted into a blend of loam soil and sand and treated preemergence with test chemicals formulated in a non-phytotoxic solvent mixture which included a surfactant.
(§3) At the same time, plants selected from these crop and weed species and also barley, winter (winter barley, Hordeum vulgare), windgrass (Apera spica-venti), chickweed (common chickweed, Stellaria media), deadnettle (henbit deadnettle, Lamium amplexicaule), and canarygrass (littleseed canarygrass, Phalaris minor) were planted in pots containing Redi-Earth® planting medium (Scotts Company, 14111 Scottslawn Road, Marysville, Ohio 43041) comprising spaghnum peat moss, vermiculite, wetting agent and starter nutrients and treated with postemergence applications of test chemicals formulated in the same manner. Plants ranged in height from 2 to 18 cm (1- to 4-leaf stage) for postemergence treatments. Treated plants and controls were maintained in a greenhouse for 13 to 15 days, after which time all species were compared to controls and visually evaluated. Plant response ratings, summarized in Table C, are based on a scale of 0 to 100 where 0 is no effect and 100 is complete control. A dash (-) response means no test result.

[6] = test system: johnsongrass; test: Test C postemergence; assay type: in vivo, Sorghum halepense; conditions: Sorghum halepense, post-emergence
Excerpt: as §2, §3

[7] = test system: soybean; test: Test C postemergence; assay type: in vivo, Glycine max; conditions: Glycine max, post-emergence
Excerpt: as §2, §3

[8] = test system: velvetleaf; test: Test C postemergence; assay type: in vivo, Abutilon theophrasti; conditions: Abutilon theophrasti, post-emergence
Excerpt: as §2, §3

[9] = test system: chickweed; test: Test C postemergence; assay type: in vivo, Stellaria media; conditions: Stellaria media, post-emergence
Excerpt: as §2, §3

[10] = test system: galium; test: Test C preemergence; assay type: in vivo, Galium aparine; conditions: Galium, pre-emergence
Excerpt: as §2, §3

[11] = test system: morningglory; test: Test C preemergence; assay type: in vivo, Ipomoea coccinea; conditions: Ipomoea, pre-emergence
Excerpt: as §2, §3

[12] = test system: soybean; test: Test C preemergence; assay type: in vivo, Glycine max; conditions: Glycine max, pre-emergence
Excerpt: as §2, §3

[13] = 125 g ai/ha, 0 to 100 scale where 0 is no effect and 100 is complete control, read-out: Foxtail, Giant plant response rating
[14] = 500 g ai/ha, 0 to 100 scale, 0 no effect, 100 complete control, approx. 10 days, read-out: Foxtail, Giant plant response rating
[15] = 125 g ai/ha, 0 to 100 scale where 0 is no effect and 100 is complete control
[16] = 500 g ai/ha, 0 to 100 scale, 0 no effect, 100 complete control

FC(F)(F)c1ccn(-c2ccccc2Oc2ncc(Cl)cn2)n1 [Compound 2, 5-chloro-2-[2-[3-(trifluoromethyl)-1H-pyrazol-1-yl]phenoxy]pyrimidine]
pest or weed control at 125 g/ha [1, 13]: 80%
pest or weed control at 500 g/ha [1, 14]: 100%
pest or weed control at 125 g/ha [2, 15]: 30%
pest or weed control at 500 g/ha [2, 16]: 70%
pest or weed control at 125 g/ha [3, 15]: 60%
pest or weed control at 500 g/ha [3, 16]: 100%
pest or weed control at 250 g/ha [4]: 0%

Clc1cnc(Oc2ccccc2-n2cc(Cl)cn2)nc1 [Compound 3]
Foxtail, Giant plant response rating [1, 15]: 90
Foxtail, Giant plant response rating ([1]; 500 g ai/ha, 0 to 100 scale, 0 no effect, 100 complete control, approx. 10 days): 100
Plant response rating, Barnyardgrass [2, 15]: 10
Plant response rating, Barnyardgrass [2, 16]: 90
Plant response rating, Pigweed [3, 15]: 90
Plant response rating, Pigweed [3, 16]: 100
Plant response rating, Barnyardgrass [4]: 0

Fc1cnc(Oc2ccccc2-n2cc(Br)cn2)nc1 [Compound 10, 2-[2-(4-bromo-1H-pyrazol-1-yl)phenoxy]-5-fluoropyrimidine]
pest or weed control at 125 g/ha [1, 13]: 90%
pest or weed control at 500 g/ha [1, 14]: 100%
pest or weed control at 125 g/ha [2, 15]: 40%
pest or weed control at 500 g/ha [2, 16]: 90%
pest or weed control at 125 g/ha [3, 15]: 100%
pest or weed control at 500 g/ha [3, 16]: 100%
pest or weed control at 250 g/ha [4]: 0%
pest or weed control at 125 g/ha ([5]; 125 g ai/ha, postemergence, read-out: Plant response rating (0 to 100), Galium): 80%
pest or weed control at 250 g/ha ([5]; 250 g ai/ha, postemergence, read-out: Plant response rating (0 to 100), Galium): 95%
pest or weed control at 31 g/ha ([5]; Postemergence, 31 g ai/ha, scale 0 to 100 (0 no effect, 100 complete control), 13 to 15 days, read-out: Plant response rating, Galium): 65%
pest or weed control at 62 g/ha ([5]; Postemergence, 62 g ai/ha, scale 0 to 100 (0 no effect, 100 complete control), read-out: Plant response rating, Galium): 80%
pest or weed control at 125 g/ha ([6]; 125 g ai/ha, postemergence, read-out: Plant response rating (0 to 100), Johnsongrass): 5%
pest or weed control at 250 g/ha ([6]; 250 g ai/ha, postemergence, read-out: Plant response rating (0 to 100), Johnsongrass): 10%
pest or weed control at 31 g/ha ([6]; Postemergence, 31 g ai/ha, scale 0 to 100 (0 no effect, 100 complete control), 13 to 15 days, read-out: Plant response rating, Johnsongrass): 5%
Soybean plant response rating (crop injury, 0-100 scale) at 125 g/ha ([7]; 125 g ai/ha, postemergence, read-out: Plant response rating (0 to 100), Soybean): 85%
Soybean plant response rating (crop injury, 0-100 scale) at 250 g/ha ([7]; 250 g ai/ha, postemergence): 95%
Soybean plant response rating (crop injury, 0-100 scale) at 31 g/ha ([7]; Postemergence, 31 g ai/ha, scale 0 to 100 (0 no effect, 100 complete control), 13 to 15 days): 50%
Soybean plant response rating (crop injury, 0-100 scale) at 62 g/ha ([7]; Postemergence, 62 g ai/ha, scale 0 to 100 (0 no effect, 100 complete control)): 75%
pest or weed control at 125 g/ha ([8]; 125 g ai/ha, postemergence, read-out: Plant response rating (0 to 100), Velvetleaf): 70%
pest or weed control at 250 g/ha ([8]; 250 g ai/ha, postemergence, read-out: Plant response rating (0 to 100), Velvetleaf): 90%
pest or weed control at 31 g/ha ([8]; Postemergence, 31 g ai/ha, scale 0 to 100 (0 no effect, 100 complete control), 13 to 15 days, read-out: Plant response rating, Velvetleaf): 50%
pest or weed control at 62 g/ha ([8]; Postemergence, 62 g ai/ha, scale 0 to 100 (0 no effect, 100 complete control), read-out: Plant response rating, Velvetleaf): 70%
pest or weed control at 125 g/ha ([9]; 125 g ai/ha, postemergence, read-out: Plant response rating (0 to 100), Chickweed): 35%
pest or weed control at 250 g/ha ([9]; 250 g ai/ha, postemergence, read-out: Plant response rating (0 to 100), Chickweed): 98%
pest or weed control at 31 g/ha ([9]; Postemergence, 31 g ai/ha, scale 0 to 100 (0 no effect, 100 complete control), 13 to 15 days, read-out: Plant response rating, Chickweed): 5%
pest or weed control at 62 g/ha ([9]; Postemergence, 62 g ai/ha, scale 0 to 100 (0 no effect, 100 complete control), read-out: Plant response rating, Chickweed): 30%

FC(F)(F)c1cnn(-c2ccccc2Oc2ncc(Br)cn2)c1 [Compound 18, 5-bromo-2-[2-[4-(trifluoromethyl)-1H-pyrazol-1-yl]phenoxy]pyrimidine]
pest or weed control at 125 g/ha ([1]; 125 g ai/ha, 0 to 100 scale where 0 is no effect and 100 is complete control, read-out: Plant response rating, Foxtail, Giant): 100%
pest or weed control at 500 g/ha [1, 14]: 100%
pest or weed control at 125 g/ha [2, 15]: 60%
pest or weed control at 500 g/ha [2, 16]: 100%
pest or weed control at 125 g/ha [3, 15]: 100%
pest or weed control at 500 g/ha [3, 16]: 100%
pest or weed control at 250 g/ha [4]: 30%
pest or weed control at 62 g/ha ([10]; 62 g ai/ha, preemergence, scale 0 (no effect) to 100 (complete control), read-out: Galium plant response rating): 95%
pest or weed control at 125 g/ha ([10]; 125 g ai/ha, preemergence, scale 0 (no effect) to 100 (complete control), read-out: Galium plant response rating): 100%
pest or weed control at 250 g/ha ([10]; 250 g ai/ha, preemergence, scale 0 (no effect) to 100 (complete control), read-out: Galium plant response rating): 100%
pest or weed control at 31 g/ha ([10]; Preemergence, 31 g ai/ha, scale 0 to 100, 0 no effect, 100 complete control, read-out: Plant response rating, Galium): 90%
pest or weed control at 62 g/ha ([11]; 62 g ai/ha, preemergence, scale 0 (no effect) to 100 (complete control), read-out: Morningglory plant response rating): 30%
pest or weed control at 125 g/ha ([11]; 125 g ai/ha, preemergence, scale 0 (no effect) to 100 (complete control), read-out: Morningglory plant response rating): 80%
pest or weed control at 250 g/ha ([11]; 250 g ai/ha, preemergence, scale 0 (no effect) to 100 (complete control), read-out: Morningglory plant response rating): 98%
pest or weed control at 31 g/ha ([11]; Preemergence, 31 g ai/ha, scale 0 to 100, 0 no effect, 100 complete control, read-out: Plant response rating, Morningglory): 10%
plant injury at 62 g/ha ([12]; 62 g ai/ha, preemergence, scale 0 (no effect) to 100 (complete control), read-out: Soybean plant response rating): 65%
plant injury at 125 g/ha ([12]; 125 g ai/ha, preemergence, scale 0 (no effect) to 100 (complete control), read-out: Soybean plant response rating): 85%
plant injury at 250 g/ha ([12]; 250 g ai/ha, preemergence, scale 0 (no effect) to 100 (complete control), read-out: Soybean plant response rating): 85%
plant injury at 31 g/ha ([12]; Preemergence, 31 g ai/ha, scale 0 to 100, 0 no effect, 100 complete control, read-out: Plant response rating, Soybean): 25%
